Measured values from paper PMC9147192, “Small Molecule Arranged Thermal Proximity Coaggregation (smarTPCA)—A Novel Approach to Characterize Protein–Protein Interactions in Living Cells by Similar Isothermal Dose–Responses” (International Journal of Molecular Sciences, 2022).
Several values for one entry are separate records, joined by “and”; a condition that tells them apart may be missing. Equal values may be shown once. Read-outs that look alike come from different tables or passages of the source.

Assays:
[1] = tested on: MAPK14; set-up: method as in Seashore-Ludlow et al., Biochemistry 2018; details: MAPK14 only, extrapolated to 50°C and extracted from figure 3b; ref Seashore-Ludlow et al., Biochemistry 2018; cited from earlier work
[2] = molecular target: MAPK14 (Homo sapiens, UniProt Q16539); assay: CETSA in HL-60 cell extract, immunoblot; type: binding
MAPK14 (Homo sapiens, UniProt Q16539), sequence (Q16539 whole entry): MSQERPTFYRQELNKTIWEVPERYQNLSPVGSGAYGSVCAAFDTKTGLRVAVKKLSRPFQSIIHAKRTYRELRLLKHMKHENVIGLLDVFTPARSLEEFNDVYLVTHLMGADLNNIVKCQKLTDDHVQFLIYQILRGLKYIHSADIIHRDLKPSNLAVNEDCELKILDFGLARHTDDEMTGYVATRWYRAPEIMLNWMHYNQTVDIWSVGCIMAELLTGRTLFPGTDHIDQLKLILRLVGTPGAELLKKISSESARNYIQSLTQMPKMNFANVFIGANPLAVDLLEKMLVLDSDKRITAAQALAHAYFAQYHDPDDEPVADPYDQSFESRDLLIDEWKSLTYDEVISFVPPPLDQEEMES
Method: (§1) For the differentiation of primary and secondary binding effects, CETSA experiments using cell extracts instead of living cells (cell extract test) are proposed in the literature. Therefore, we performed CETSA assays in HL-60 cell extracts under the same conditions as for living cells (Figure 1, Table 1, Supplementary Table S6).
(§2) HL-60 cells were expanded as described above for CETSA and TPP-TR to about 1.25 million cells per ml. 50 mL of the cell suspension, respectively, was transferred into 50 mL conical tubes. After centrifugation (300 rcf, 3 min, r.t.) and removing all of the supernating culture medium, the cells were washed twice with 25 mL PBS (r.t.) by gently resuspending the cells, followed by centrifugation (300 rcf, 3 min, r.t.) and the removal of the supernatant. The cells were transferred into pre-weighed 2 mL LoBind Eppendorf tubes using 1 mL PBS (r.t.), respectively, for resuspending. After centrifugation (300 rcf, 3 min, r.t.) and removing as much as possible of the supernatants, the cell wet weights were determined. The cells were stored at −80 °C after shock-freezing in liquid nitrogen.
(§3) Cell extracts were obtained by four freeze/thaw cycles as described above for CETSA and TPP-TR using 10 µL ice cold PBS supplemented with protease inhibitors per milligram of cell pellet wet weight for the initial resuspension of the pellet, followed by centrifugation (20,000 rcf, 30 min, 4 °C), and the recovery of the supernatant. After determining the protein content, the cell extracts were diluted to 1.8 mg/mL total protein concentration using ice-cold PBS supplemented with protease inhibitors and aliquots of 99 µL in PCR tube strips, and 1.1 mL in LoBind 1.5 mL Eppendorf tubes were shock-frozen in liquid nitrogen and stored at −80 °C or directly processed.
(§4) A fourth aliquot of 1.8 mg/mL HL-60 cell extract was supplemented with 2.2 µL of DMSO. […] After a brief centrifugation using a benchtop centrifuge, the temperature treatment at the ten different temperatures was performed as described in Section 4.1.1.
(§5) Additionally, the preparation of cell extracts containing the fraction of soluble, non-denatured proteins was performed as described in Section 4.1.1. for living cells, but omitting the freeze/thaw steps for cell lysis.
(§6) For each sample set comprising either ten temperature range samples or ten compound concentration range samples, the same volume of the cell extracts containing the fraction of soluble, non-denatured proteins was used for further analysis. This volume was determined using the two lowest temperature samples (36.5 and 41.2 °C) per temperature range sample set so that they contained an average of 5 µg total protein (e.g., 2.78 µL for all temperature range samples of a sample set whose two lowest temperature samples contain an average of 1.8 mg/mL protein). For the compound concentration range experiments, all samples of a set were used for averaging. The calculated volume was respectively transferred into PCR tubes of a tube strip, supplemented with SDS sample buffer (final concentrations: 25 mM dithiothreitol (DTT), 7.5% glycerol, 3% SDS, 37.5 mM Tris/HCl pH 7.0, 0.005% bromophenol blue), incubated for 10 min at r.t. and applied to SDS-PAGE under external cooling in an ice bath (MW marker: PageRuler pre-stained protein ladder (Thermo scientific, Waltham, MA, USA); NuPAGE 4–12% Bis-Tris Gels, 1.0 mm, Midi Protein Gel, 26-well (Thermo fisher scientific); ice cold MOPS SDS running buffer (50 mM MOPS, 50 mM Tris base, 0.1% SDS, 0.003% EDTA (free acid)); 50 V for 15 min, then 200 V for about 1.5 h, i.e., the rest of the run).

[3] = molecular target: T1, MAPKAPK2p (Homo sapiens, UniProt P49137); assay: CETSA in HL-60 cell extract, immunoblot; type: binding
T1 construct: phosphorylation-dependent electrophoretic mobility shift (PDEMS) of MAPKAPK2, which appeared as a double band; endogenous in cells; host or cells: HL-60 (ATCC CCL-240), living cells or cell extract
T1 sequence (P49137 whole entry): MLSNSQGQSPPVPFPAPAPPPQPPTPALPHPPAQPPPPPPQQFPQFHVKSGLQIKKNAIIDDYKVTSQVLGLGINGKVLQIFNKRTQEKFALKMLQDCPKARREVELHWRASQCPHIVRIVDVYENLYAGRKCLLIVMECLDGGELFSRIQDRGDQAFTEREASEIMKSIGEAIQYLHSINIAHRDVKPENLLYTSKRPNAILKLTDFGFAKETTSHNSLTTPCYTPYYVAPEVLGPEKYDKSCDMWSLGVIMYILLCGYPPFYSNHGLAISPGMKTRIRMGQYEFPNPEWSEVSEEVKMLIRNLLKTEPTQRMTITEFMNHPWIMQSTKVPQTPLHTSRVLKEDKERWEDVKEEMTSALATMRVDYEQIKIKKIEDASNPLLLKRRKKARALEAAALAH
T1 sequence (Q16539 2-360 partner): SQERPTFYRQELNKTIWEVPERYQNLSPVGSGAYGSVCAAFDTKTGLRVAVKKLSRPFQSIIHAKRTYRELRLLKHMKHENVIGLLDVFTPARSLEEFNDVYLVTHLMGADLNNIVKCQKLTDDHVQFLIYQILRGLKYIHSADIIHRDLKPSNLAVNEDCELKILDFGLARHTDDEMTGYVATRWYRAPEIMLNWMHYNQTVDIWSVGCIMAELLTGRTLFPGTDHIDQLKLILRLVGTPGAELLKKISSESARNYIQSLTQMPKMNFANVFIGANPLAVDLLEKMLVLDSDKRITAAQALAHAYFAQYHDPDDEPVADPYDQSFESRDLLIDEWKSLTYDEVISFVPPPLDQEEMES
Method: as §1, §2, §3, §4, §5, §6

[4] = molecular target: MAPKAPK3 (Homo sapiens, UniProt Q16644); assay: CETSA in HL-60 cell extract, immunoblot; type: binding
MAPKAPK3, sequence (Q16644 whole entry): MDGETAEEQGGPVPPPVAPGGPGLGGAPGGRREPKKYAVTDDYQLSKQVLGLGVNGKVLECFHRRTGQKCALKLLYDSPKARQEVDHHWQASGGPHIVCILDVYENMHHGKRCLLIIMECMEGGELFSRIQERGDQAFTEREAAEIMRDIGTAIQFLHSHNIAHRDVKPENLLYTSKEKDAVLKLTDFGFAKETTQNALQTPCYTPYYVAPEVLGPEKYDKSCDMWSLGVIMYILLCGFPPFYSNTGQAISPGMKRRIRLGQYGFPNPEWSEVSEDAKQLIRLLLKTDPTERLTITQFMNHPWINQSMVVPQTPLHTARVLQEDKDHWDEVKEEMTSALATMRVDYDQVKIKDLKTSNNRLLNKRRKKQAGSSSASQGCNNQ
MAPKAPK3, sequence (Q16539 whole entry partner): as the sequence (Q16539 whole entry) above
Method: as §1, §2, §3, §4, §5, §6

[5] = HL-60 cell extract, 20 µM inhibitor, immunoblot
[6] = HL-60 cell extract, 20 µM inhibitor, immunoblot, 20 µM
[7] = MAPKAPK2p, cell extract, immunoblot
[8] = MAPKAPK3, cell extract, immunoblot

## Cn1c(NC[C@@H](N)Cc2ccccc2)nc(-c2ccncc2)c(-c2ccc3ccccc3c2)c1=O [AMG-548]
[1]
  pEC50, Cell extract: 8.14
[2]; 20 µM inhibitor, read-out: ΔTm to DMSO in Cell Extract Compared to Living Cells (MAPK14)
  ΔTm at 20 µM: -1.16 °C
[2]; CETSA in cell extract (lysate), MAPK14, inhibitor minus DMSO
  Tm difference vs DMSO, same protein: 13.60
[2]; CETSA in cell extract (lysate), MAPK14, in °C
  Tm (fitted melting curve): 59.15
[2]; [5]
  Tm (MAPK14): 59.15 °C
[2]; HL-60 cell extract, 20 µM inhibitor, immunoblot, read-out: ΔTm to DMSO (MAPK14)
  ΔTm at 20 µM: 13.6 °C
[2]; MAPK14, cell extract, immunoblot
  Tm: 59.15 °C
[3]; CETSA in cell extract (lysate), MAPKAPK2p, inhibitor minus DMSO
  Tm difference vs DMSO, same protein: 2.82
[3]; CETSA in cell extract (lysate), MAPKAPK2p, in °C
  Tm (fitted melting curve): 50.95
[3]; [5]
  Tm (MAPKAPK2p): 50.95 °C
[3]; [6]
  ΔTm to DMSO (MAPKAPK2p): 2.82 °C
[3]; HL-60 cell extract, 20 µM inhibitor, immunoblot, listed as AMG548, 20 µM
  ΔTm to DMSO (MAPKAPK2p): 2.8 °C
[3]; [7]
  Tm: 50.95 °C
  ΔTm to DMSO: 2.82 °C
[4]; 20 µM inhibitor
  ΔTm to DMSO in Cell Extract Compared to Living Cells (MAPKAPK3): −3.99 °C
[4]; CETSA in cell extract (lysate), MAPKAPK3, inhibitor minus DMSO
  Tm difference vs DMSO, same protein: 2.63
[4]; CETSA in cell extract (lysate), MAPKAPK3, in °C
  Tm (fitted melting curve): 49.31
[4]; [5]
  Tm (MAPKAPK3): 49.31 °C
[4]; [6]
  ΔTm to DMSO (MAPKAPK3): 2.6 °C and 2.63 °C
[4]; MAPKAPK3, cell extract minus living cells
  ΔTm to DMSO in cell extract compared to living cells: -3.99 °C
[4]; [8]
  Tm: 49.31 °C
  ΔTm to DMSO: 2.63 °C
